The target in test [1] is Mu-type opioid receptor (Homo sapiens) (UniProt P35372). Put plainly: Agonist activity at human mu-opioid receptor expressed in HEK293 cells assessed as inhibition of forskolin-induced cAMP accumulation preincubated for 15 mins followed by forskolin addition in presence of IBMX by Glo-sensor cAMP assay relative to control. The format is functional, cell-based. The conditions noted are these: filed as agonist. In general terms: cAMP levels reflect the balance of adenylyl cyclase and phosphodiesterase activity.

The target of test [2] is Delta-type opioid receptor (Homo sapiens) (UniProt P41143). Kind of test: Agonist activity at human delta-opioid receptor expressed in HEK293 cells assessed as inhibition of forskolin-induced cAMP accumulation preincubated for 15 mins followed by forskolin addition in presence of IBMX by Glo-sensor cAMP assay relative to control. The conditions noted are these: filed as agonist. The format is functional, cell-based.

Test [3] concerns the target Kappa-type opioid receptor (Homo sapiens, UniProt P41145). Kind of test: Agonist activity at human kappa opioid receptor expressed in HEK293 cells assessed as inhibition of forskolin-induced cAMP accumulation incubated for 15 mins followed by forskolin addition in presence of IBMX by Glo-sensor cAMP assay relative to control. The format is functional, cell-based.
For test [4], the target named is T1, Neuropeptide FF receptor 1 (Homo sapiens, UniProt Q9GZQ6). Kind of test: Agonist activity at human NPFFR1 expressed in CHO cells by [35S]-GTP S binding assay relative to control. The format is cell-based.
Test [5] addresses T2, Neuropeptide FF receptor 2 (Homo sapiens, UniProt Q9Y5X5). Kind of test: Agonist activity at human NPFFR2 expressed in CHO cells by [35S]-GTP S binding assay relative to control. The format is cell-based.
The target of test [6] is T2, Neuropeptide FF receptor 2. Put plainly: Displacement of TAMRA-NPFF from human NPFFR2 expressed in CHO-K1 cells preincubated for 15 mins followed by GTPgammaS addition and measured after 15 to 120 mins by competitive binding assay. Format: cell-based.
Test [7] concerns the target T2, Neuropeptide FF receptor 2. Kind of test: Agonist activity at human NPFFR2 expressed in CHO cells assessed as inhibition of forskolin-induced intracellular cAMP production incubated for 5 hrs by firefly/renilla luciferase reporter assay. Format: functional, cell-based.
Test [8] concerns the target T1, Neuropeptide FF receptor 1. Put plainly: Agonist activity at NPFFR1 (unknown origin) expressed in mouse NIH3T3 cells by receptor selection and amplification technology assay relative to control. The format is cell-based.
In test [9] the target is Neuropeptide FF receptor 2 (Rattus norvegicus) (UniProt Q9EQD2). Kind of test: Agonist activity at rat NPFFR2 by cell-based assay relative to control. The conditions noted are these: filed as agonist.
Test [10] deals with Neuropeptide FF receptor 1 (Rattus norvegicus, UniProt Q9EP86). Kind of test: Displacement of [125I](Tyr)NPF from rat NPFFR1 expressed in rat PC12 cells incubated for 1 hr. The format is cell-based, PC-12.
Test [11] deals with T2, Neuropeptide FF receptor 2. Kind of test: Agonist activity at human NPFFR2 expressed in CHO cells assessed as stimulation of [35S]-GTPgammaS binding preincubated for 30 mins followed by [35S]-GTPgammaS stimulation and measured after 30 mins by scintillation counting method. The format is functional, cell-based.
The target of test [12] is T2, Neuropeptide FF receptor 2. Put plainly: Agonist activity at NPFFR2 (unknown origin) expressed in mouse NIH3T3 cells by receptor selection and amplification technology assay relative to control. The format is cell-based. To be noted: filed as agonist.
The target in test [13] is T1, Neuropeptide FF receptor 1. Put plainly: Agonist activity at NPFFR1 (unknown origin) expressed in mouse NIH3T3 cells by receptor selection and amplification technology assay. Format: cell-based.
Test [14] addresses T1, Neuropeptide FF receptor 1. Put plainly: Agonist activity at NPFFR1 (unknown origin) expressed in HEK293T cells harboring EP2 incubated for 15 mins by cAMP assay relative to control. The format is functional, cell-based. The conditions noted are these: filed as agonist.
In test [15] the target is T1, Neuropeptide FF receptor 1. Kind of test: Agonist activity at NPFFR1 (unknown origin) expressed in HEK293T cells harboring EP2 incubated for 15 mins by cAMP assay. Format: functional, cell-based.
Test [16] has as its target T2, Neuropeptide FF receptor 2. Kind of test: Agonist activity at NPFFR2 (unknown origin) expressed in HEK293T cells harboring EP2 incubated for 15 mins by cAMP assay relative to control. The format is functional, cell-based. To be noted: filed as agonist.
For test [17], the target named is T3, Prolactin-releasing peptide receptor (Homo sapiens, UniProt P49683).
T3 sequence (P49683 whole entry): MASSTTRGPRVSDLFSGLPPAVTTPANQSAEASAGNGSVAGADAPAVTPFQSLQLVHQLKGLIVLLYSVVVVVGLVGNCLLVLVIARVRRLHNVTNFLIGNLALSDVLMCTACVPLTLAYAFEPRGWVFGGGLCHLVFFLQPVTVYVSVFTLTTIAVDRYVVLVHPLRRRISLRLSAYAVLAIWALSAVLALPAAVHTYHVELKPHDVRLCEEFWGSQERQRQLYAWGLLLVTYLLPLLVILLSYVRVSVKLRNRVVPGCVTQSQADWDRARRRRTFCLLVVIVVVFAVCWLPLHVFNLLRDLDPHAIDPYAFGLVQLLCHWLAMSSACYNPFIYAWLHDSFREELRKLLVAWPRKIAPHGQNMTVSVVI
Kind of test: Displacement of [3H]-PrRP-20 from human PrRP receptor expressed in CHO cell membrane by TopCount scintillation counter method. The format is cell membranes. In general terms: Displacement assays read how much labelled ligand stays bound in the presence of the test substance.

The target of the next test is KiSS-1 receptor (Homo sapiens, UniProt Q969F8). Put plainly: Displacement of [125I]-Kp-10 from human KISS1R expressed in CHO cell membrane by TopCount scintillation counter method. Format: cell membranes.
The target of test [18] is T4, Pyroglutamylated RF-amide peptide receptor (Homo sapiens, UniProt Q96P65).
T4 sequence (Q96P65 whole entry): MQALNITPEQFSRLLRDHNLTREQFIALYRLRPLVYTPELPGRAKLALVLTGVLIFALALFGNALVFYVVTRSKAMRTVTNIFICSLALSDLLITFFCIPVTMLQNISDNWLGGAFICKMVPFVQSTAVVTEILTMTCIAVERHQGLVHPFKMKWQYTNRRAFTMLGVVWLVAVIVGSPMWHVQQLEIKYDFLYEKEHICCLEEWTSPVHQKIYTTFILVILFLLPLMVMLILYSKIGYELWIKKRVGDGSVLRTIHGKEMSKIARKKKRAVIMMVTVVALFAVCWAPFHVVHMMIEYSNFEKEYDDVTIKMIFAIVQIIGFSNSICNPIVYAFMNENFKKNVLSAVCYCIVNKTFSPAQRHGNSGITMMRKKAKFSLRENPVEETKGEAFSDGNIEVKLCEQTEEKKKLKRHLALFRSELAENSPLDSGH
Put plainly: Displacement of [125I]-43RFa from human QRFP receptor expressed in CHO cell membrane by TopCount scintillation counter method. Format: cell membranes.

Test [19] can be described thus: Displacement of [125I][Tyr1]-NPFF from NPFF receptor in rat spinal cord membranes by Cheng-Prusoff analysis. The format is cell membranes, Membrane.
The next test concerns Mus musculus. Put plainly: Reversal of morphine-induced analgesia in icv dosed CDF1 mouse assessed as minimum effective dose measured after 15 mins by tail-flick test. Format: functional. The conditions noted are these: 0.25 h. (In general: Thermal pain tests record how soon the animal reacts.)
Test [20] in a line: Binding affinity to NPFFR in rat spinal cord. Format: tissue-based.
In test [21] the target is T2, Neuropeptide FF receptor 2. To be noted: COS-1, filed as antagonist, dose 7.5 µM, time 30.0 min.

Numbered stars: 1 amine (or outer) side, 2 acyl side, 3 side chain; on linkers, the order of the positions; unused ones are H or OH. Square brackets hold non-standard residues; d marks the D form. Peptide text beside a SMILES is read from it. * marks the point of attachment. Nva(5-(4-Bn-piperidin-1-yl)) = N[C@@H](CCCN1CCC(Cc2ccccc2)CC1)C(=O)O; X1 = O=C1[C@@H](N[*:1])Cc2ccccc2CN1CCC(=O)[*:2]; Desaminotyrosyl = O=C(CCc1ccc(O)cc1)*; Dmt = Cc1cc(O)cc(C)c1C[C@H](N)C(=O)O; Tic = O=C(O)[C@@H]1Cc2ccccc2CN1

T2 sequence (Q9Y5X5 whole entry): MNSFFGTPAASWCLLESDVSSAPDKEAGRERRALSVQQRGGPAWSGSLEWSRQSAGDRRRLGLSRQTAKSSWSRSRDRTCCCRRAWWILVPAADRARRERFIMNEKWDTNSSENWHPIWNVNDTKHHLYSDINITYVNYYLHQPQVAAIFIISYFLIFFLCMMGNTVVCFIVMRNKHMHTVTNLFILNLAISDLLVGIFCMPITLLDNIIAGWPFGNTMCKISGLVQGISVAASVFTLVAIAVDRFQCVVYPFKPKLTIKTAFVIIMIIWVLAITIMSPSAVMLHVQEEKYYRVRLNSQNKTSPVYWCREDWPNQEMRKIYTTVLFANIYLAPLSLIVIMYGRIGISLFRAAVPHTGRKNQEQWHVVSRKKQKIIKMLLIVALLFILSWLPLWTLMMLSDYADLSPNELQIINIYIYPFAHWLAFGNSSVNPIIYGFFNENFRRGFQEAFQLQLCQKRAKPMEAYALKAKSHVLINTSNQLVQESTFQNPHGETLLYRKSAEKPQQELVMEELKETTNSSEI
T1 sequence (Q9GZQ6 whole entry): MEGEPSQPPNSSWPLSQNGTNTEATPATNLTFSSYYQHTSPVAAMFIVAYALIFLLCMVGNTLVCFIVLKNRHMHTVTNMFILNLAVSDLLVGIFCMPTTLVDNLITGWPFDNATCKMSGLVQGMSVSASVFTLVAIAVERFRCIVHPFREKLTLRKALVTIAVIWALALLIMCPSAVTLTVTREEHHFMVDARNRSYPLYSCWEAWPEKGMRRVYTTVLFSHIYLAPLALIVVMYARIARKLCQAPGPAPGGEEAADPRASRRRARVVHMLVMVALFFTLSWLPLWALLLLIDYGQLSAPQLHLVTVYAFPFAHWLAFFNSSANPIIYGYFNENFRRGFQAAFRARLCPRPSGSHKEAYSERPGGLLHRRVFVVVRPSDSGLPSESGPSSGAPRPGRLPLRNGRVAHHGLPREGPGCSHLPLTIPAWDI
Sequence of Neuropeptide FF receptor 1 (Rattus norvegicus, UniProt Q9EP86) (Q9EP86 whole entry): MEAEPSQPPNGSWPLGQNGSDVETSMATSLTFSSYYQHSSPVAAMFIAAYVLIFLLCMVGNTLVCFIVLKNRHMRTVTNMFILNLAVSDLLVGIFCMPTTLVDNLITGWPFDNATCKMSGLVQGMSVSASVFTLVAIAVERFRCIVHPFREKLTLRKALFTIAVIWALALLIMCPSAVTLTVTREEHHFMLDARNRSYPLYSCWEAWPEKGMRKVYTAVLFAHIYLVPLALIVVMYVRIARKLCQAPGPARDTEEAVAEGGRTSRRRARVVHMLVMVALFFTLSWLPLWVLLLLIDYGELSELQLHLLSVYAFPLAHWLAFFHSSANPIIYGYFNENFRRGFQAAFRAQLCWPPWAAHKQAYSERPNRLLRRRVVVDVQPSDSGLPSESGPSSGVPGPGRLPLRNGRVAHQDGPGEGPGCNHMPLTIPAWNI
Sequence of Neuropeptide FF receptor 2 (Rattus norvegicus) (Q9EQD2 whole entry): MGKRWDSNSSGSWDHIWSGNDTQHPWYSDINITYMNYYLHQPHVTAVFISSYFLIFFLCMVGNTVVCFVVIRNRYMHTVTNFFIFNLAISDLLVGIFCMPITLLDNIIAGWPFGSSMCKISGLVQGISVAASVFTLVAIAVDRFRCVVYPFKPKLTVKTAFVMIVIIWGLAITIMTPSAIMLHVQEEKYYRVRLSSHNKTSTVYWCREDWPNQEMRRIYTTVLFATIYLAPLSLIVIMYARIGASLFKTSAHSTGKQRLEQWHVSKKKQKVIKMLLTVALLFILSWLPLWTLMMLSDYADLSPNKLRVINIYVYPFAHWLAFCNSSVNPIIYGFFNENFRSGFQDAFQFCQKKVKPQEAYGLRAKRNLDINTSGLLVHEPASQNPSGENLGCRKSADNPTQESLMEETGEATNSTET
Sequence of KiSS-1 receptor (Q969F8 whole entry): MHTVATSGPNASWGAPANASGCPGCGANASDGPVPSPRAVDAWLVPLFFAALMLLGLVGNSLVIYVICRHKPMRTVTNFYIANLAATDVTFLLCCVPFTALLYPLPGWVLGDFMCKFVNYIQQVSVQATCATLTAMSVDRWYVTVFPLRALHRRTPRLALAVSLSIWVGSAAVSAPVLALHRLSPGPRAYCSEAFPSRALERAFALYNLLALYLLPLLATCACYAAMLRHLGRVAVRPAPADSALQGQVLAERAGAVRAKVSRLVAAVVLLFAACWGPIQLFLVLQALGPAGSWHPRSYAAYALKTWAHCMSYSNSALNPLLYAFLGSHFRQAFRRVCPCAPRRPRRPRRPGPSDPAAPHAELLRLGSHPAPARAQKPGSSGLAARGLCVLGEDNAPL
Sequence of Mu-type opioid receptor (Homo sapiens) (P35372 whole entry): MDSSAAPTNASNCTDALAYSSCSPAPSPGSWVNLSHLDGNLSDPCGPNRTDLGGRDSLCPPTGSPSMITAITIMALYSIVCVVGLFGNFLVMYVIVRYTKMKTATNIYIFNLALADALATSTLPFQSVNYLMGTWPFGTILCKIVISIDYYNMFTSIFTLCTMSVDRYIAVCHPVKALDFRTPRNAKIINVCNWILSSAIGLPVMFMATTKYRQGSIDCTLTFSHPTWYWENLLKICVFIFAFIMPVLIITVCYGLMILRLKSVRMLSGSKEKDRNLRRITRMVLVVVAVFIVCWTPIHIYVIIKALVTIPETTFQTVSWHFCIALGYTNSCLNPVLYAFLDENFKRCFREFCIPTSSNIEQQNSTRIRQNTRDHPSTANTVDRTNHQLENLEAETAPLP
Sequence of Delta-type opioid receptor (Homo sapiens) (P41143 whole entry): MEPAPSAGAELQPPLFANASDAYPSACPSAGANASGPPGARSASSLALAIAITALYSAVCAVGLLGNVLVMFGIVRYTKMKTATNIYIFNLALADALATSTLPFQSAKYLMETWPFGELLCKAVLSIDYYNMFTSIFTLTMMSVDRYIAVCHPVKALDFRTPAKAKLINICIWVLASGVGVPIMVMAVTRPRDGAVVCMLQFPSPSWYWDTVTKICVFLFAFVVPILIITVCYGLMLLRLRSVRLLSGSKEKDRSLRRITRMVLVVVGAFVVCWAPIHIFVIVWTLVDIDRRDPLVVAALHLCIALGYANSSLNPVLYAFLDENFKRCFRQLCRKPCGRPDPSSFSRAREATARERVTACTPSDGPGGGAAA
Sequence of Kappa-type opioid receptor (P41145 whole entry): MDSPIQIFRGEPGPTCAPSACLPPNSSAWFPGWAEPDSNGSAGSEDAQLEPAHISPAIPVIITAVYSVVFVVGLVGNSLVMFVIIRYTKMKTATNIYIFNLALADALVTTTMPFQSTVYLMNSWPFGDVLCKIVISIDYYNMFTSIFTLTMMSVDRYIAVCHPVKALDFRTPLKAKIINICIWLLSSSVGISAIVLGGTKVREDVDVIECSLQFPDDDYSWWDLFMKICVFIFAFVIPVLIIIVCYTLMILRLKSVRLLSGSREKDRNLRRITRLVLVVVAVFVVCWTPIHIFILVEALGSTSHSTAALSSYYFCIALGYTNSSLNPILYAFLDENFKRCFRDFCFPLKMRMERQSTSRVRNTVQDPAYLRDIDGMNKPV

As a reminder, the Emax is the size of the effect at its maximum, as opposed to the concentration needed. For the compound `Cc1cc(O)cc(C)c1C[C@H](N)C(=O)N[C@H](CCCNC(=N)N)C(=O)N[C@H]1Cc2ccccc2CN(CCC(=O)N[C@@H](CCCN2CCC(Cc3ccccc3)CC2)C(=O)N[C@@H](Cc2ccccc2)C(N)=O)C1=O` (H-[Dmt][dR][X1][Nva(5-(4-Bn-piperidin-1-yl))]F-NH2), the maximum response (Emax) in test [1] worked out at 85%; in test [2] it was 90%; in test [3] it was 34%; in test [4], 10%; in [5], 38%.
The term Ki denotes the equilibrium dissociation constant of an inhibitor or competing ligand from its target. Lower therefore signals tighter binding. As a reminder, the EC50 is the concentration giving half of the maximal effect. Take `COc1cc2c(c(OC)c1OC)-c1c(cc(C)c(C)c1OC)[C@@H](C(=O)Oc1ccccc1)[C@@](C)(O)[C@@H](C)C2`: affinity in [6] was put at a Ki of 1.42 nM. Moreover, in [7], the half-maximal effective concentration (EC50) is 1470 nM.
For `N=C(N)N/N=C/c1ccc(Cl)c(Cl)c1`, the Efficacy in test [8] worked out at 12%.
In test [9], `Cc1cc(NC(=N)N)nc2ccc(Cl)cc12` returned an Emax of 61%.
Usually IC50 stands for the concentration that inhibits the measured activity by half. As for `N=C(N)NCCC[C@H](NC(=O)[C@H](Cc1ccccc1)NC(=O)[C@@H]1CCCN1)C(=O)N1Cc2ccccc2C[C@H]1C(N)=O` (H-PFR[Tic]-NH2), in test [10], the half-inhibitory concentration (IC50) turned out to be 0.1 nM and the Ki is 101 nM. Moreover, the EC50 in test [11] was found to be 2400 nM.
With `N=C(N)N/N=C/c1ccc(Cl)c(C(F)(F)F)c1`, the Efficacy amounted to 30.6% in test [8], 108% in test [12], 42% in [14] and 89% in [16]. Moreover, the concentration giving a half-maximal response (EC50) in test [13] and in test [15] was 3160 nM in each case.
As for `NC(N)=N/N=C/c1ccc(Cl)c(Cl)c1`, the Ki (in [17]; at KiSS-1 receptor; in test [18]) was more than 5000 nM in each case.
As to `CC(C)C[C@H](NC(=O)[C@@H](N)Cc1ccc(O)cc1)C(=O)N[C@@H](Cc1ccccc1)C(=O)N[C@@H](CCC(N)=O)C(=O)N1CCC[C@H]1C(=O)N[C@@H](CCC(N)=O)C(=O)N[C@@H](CCCN=C(N)N)C(=O)N[C@@H](Cc1ccccc1)C(N)=O` (H-YLFQPQRF-NH2), in [19], affinity was put at a Ki of 0.2 nM. Further, the MEC with Mus musculus stood at 8.8 nmol.
As to `CC(C)C[C@H](NC(=O)[C@H](Cc1ccccc1)NC(=O)CCc1ccc(O)cc1)C(=O)N[C@@H](Cc1ccccc1)C(=O)N[C@@H](CCC(N)=O)C(=O)N1CCC[C@H]1C(=O)N[C@@H](CCC(N)=O)C(=O)N[C@@H](CCCN=C(N)N)C(N)=O` (Desaminotyrosyl-FLFQPQR-NH2), in [20], the inhibition constant Ki was 0.2 nM.
The compound `N=C(N)NCCC[C@H](NC(=O)C12CC3CC(CC(C3)C1)C2)C(=O)N[C@@H](Cc1ccccc1)C(N)=O` showed a Ke in test [21] of 45 nM.

The record behind these values is ChEMBL document CHEMBL4765381, “Neuropeptide FF and Its Receptors: Therapeutic Applications and Ligand Development” (J Med Chem, 2020).
